Target: T1, human renal renin (Homo sapiens, UniProt P00797)
T1 construct: human renal renin, free from acid proteolytic activity; from tissue; host or cells: human kidney (renal)
T1 sequence (P00797 67-406): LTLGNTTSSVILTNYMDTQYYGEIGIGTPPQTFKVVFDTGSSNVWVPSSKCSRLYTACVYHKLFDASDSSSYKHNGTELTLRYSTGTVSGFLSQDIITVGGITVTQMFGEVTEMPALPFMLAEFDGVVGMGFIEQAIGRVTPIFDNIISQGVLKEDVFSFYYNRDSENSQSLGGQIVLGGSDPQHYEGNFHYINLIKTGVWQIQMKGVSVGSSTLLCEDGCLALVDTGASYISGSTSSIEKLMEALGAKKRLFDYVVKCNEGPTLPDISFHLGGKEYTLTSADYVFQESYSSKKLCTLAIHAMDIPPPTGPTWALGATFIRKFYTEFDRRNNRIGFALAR
Assay: inhibition of human renal renin in vitro, angiotensin I formed measured by radioimmunoassay
Type: biochemical
Settings: human renal renin with human renin substrate (angiotensinogen), 37° C., pH 6.0

Compound | IC50 [nM]
2(R,S)-(4-morpholinylcarbonylmethyl)-3-(1'-naphthyl)-propionyl-His-ACHPA-amide of 2-methylbutylamine [Example 87] | 2
2(R,S)-(4-morpholinylcarbonylmethyl)-3-(4'-methoxyphenyl)-propionyl-His-ACHPA-amide of 2-methylbutylamine [Example 89] | 61
CC(C)CC(NC(=O)C(Cc1cnc[nH]1)NC(=O)C(Cc1ccccc1)NC(=O)OC(C)(C)C)C(O)CC(=O)NCc1ccccc1 (stereo not drawn) [Example 10, Boc-Phe-His-Sta amide of benzylamine] | 700
CC(C)CNC(=O)CC(O)C(CC(C)C)NC(=O)C(Cc1cnc[nH]1)NC(=O)C(Cc1ccccc1)NC(=O)OC(C)(C)C (stereo not drawn) [Example 12, Boc-Phe-His-Sta amide of isobutylamine] | 500
CCC(C)C(CO)NC(=O)CC(O)C(CC(C)C)NC(=O)C(C)NC(=O)C(Cc1cccc2ccccc12)NC(=O)OC(C)(C)C (stereo not drawn) [Example 13, Boc-(α-Naphthyl)Ala-Ala-Sta-amide of isoleucinol] | 50
CCC(C)CNC(=O)CC(O)C(CC(C)C)NC(=O)C(Cc1cnc[nH]1)NC(=O)C(Cc1ccccc1)NC(=O)CC(C)(C)C (stereo not drawn) [Example 16, t-Butylacetyl-Phe-His-Sta amide of 2-methylbutylamine] | 100
CCC(C)CNC(=O)C[C@H](O)[C@H](CC(C)C)NC(=O)[C@H](Cc1c[nH]cn1)NC(=O)[C@H](Cc1ccc(I)cc1)NC(=O)OC(C)(C)C (stereo partly drawn) [Example 17, Boc-p-iodo-Phe-His-Sta amide of 2-methylbutylamine] | 1000
CC(C)CCNC(=O)CC(O)C(CC1CCCCC1)NC(=O)C(Cc1cnc[nH]1)NC(=O)C(Cc1ccccc1)NC(=O)OC(C)(C)C (stereo not drawn) [Example 25, Boc-Phe-His-ACHPA amide of isopentylamine] | 5
CCC(C)CNC(=O)C(OCc1ccccc1)C(O)C(CC1CCCCC1)NC(=O)[C@H](C)NC(=O)[C@H](Cc1ccccc1)NC(=O)OC(C)(C)C (stereo partly drawn) [Example 32, Boc-Phe-Alaninyl-4-amino-2-benzyloxy-3-hydroxy-5-cyclohexylpentanoic acid amide of 2-methylbutylamine] | 6
CCC(C)CNC(=O)C(OCc1ccccc1)C(O)C(CC1CCCCC1)NC(=O)C(Cc1cnc[nH]1)NC(=O)C(Cc1ccccc1)NC(=O)OC(C)(C)C (stereo not drawn) [Example 33, Boc-Phe-Histidinyl-4-amino-2-benzyloxy-3-hydroxy-5-cyclohexylpentanoic acid amide of 2-methylbutylamine] | 35
CCC(C)CNC(=O)C(O)C(O)C(CC1CCCCC1)NC(=O)C(C)NC(=O)C(Cc1ccccc1)NC(=O)OC(C)(C)C (stereo not drawn) [Example 34, Boc-Phe-Alaninyl-4-amino-2,3-dihydroxy-5-cyclohexylpentanoic acid amide of 2-methylbutylamine] | 20
CCC(C)CNC(=O)C(O)C(O)C(CC1CCCCC1)NC(=O)C(Cc1cnc[nH]1)NC(=O)C(Cc1ccccc1)NC(=O)OC(C)(C)C (stereo not drawn) [Example 35, Boc-Phe-Histidinyl-4-amino-2,3-dihydroxy-5-cyclohexylpentanoic acid amide of 2-methylbutylamine] | 7
CCC(C)CNC(=O)C(OC)C(O)C(CC1CCCCC1)NC(=O)[C@H](Cc1cnc[nH]1)NC(=O)[C@H](Cc1ccccc1)NC(=O)OC(C)(C)C (stereo partly drawn) [Example 40, Boc-Phe-Histidinyl-4-amino-2-methoxy-3-hydroxy-5-cyclohexylpentanoic acid amide of 2-methylbutylamine] | 30
C=CCC(C(=O)NCC(C)CC)C(O)C(CC1CCCCC1)NC(=O)C(Cc1cnc[nH]1)NC(=O)C(Cc1ccccc1)NC(=O)OC(C)(C)C (stereo not drawn) [Example 45, Boc-Phe-Histidinyl-4-amino-2-allyl-3-hydroxy-5-cyclohexylpentanoic acid amide of 2-methylbutylamine] | 1
CCCC(C(=O)NCC(C)CC)C(O)C(CC1CCCCC1)NC(=O)C(Cc1cnc[nH]1)NC(=O)C(Cc1ccccc1)NC(=O)OC(C)(C)C (stereo not drawn) [Example 46, Boc-Phe-Histidinyl-4-amino-2-propyl-3-hydroxy-5-cyclohexylpentanoic acid amide of 2-methylbutylamine] | 1.5
CCC(C)CNC(=O)C(OC)C(O)C(CC1CCCCC1)NC(=O)C(CCSC)NC(=O)C(Cc1ccccc1)NC(=O)OC(C)(C)C (stereo not drawn) [Example 47, Boc-Phe-Methioninyl-4-amino-2-methoxy-3-hydroxy-5-cyclohexylpentanoic acid amide of 2-methylbutylamine] | 1
CCC(C)CNC(=O)C(OC)C(O)C(CC1CCCCC1)NC(=O)C(CSC)NC(=O)C(Cc1ccccc1)NC(=O)OC(C)(C)C (stereo not drawn) [Example 48, Boc-Phe-S-methylcysteinyl-4-amino-2-methoxy-3-hydroxy-5-cyclohexlpentanoic acid amide of 2-methylbutylamine] | 0.7
C=CCC(C(=O)NCC(C)CC)C(O)C(CC1CCCCC1)NC(=O)C(C)NC(=O)C(Cc1ccccc1)NC(=O)OC(C)(C)C (stereo not drawn) [Example 49, Boc-Phe-Alaninyl-4-amino-2-allyl-3-hydroxy-5-cyclohexylpentanoic acid amide of 2-methylbutylamine] | 1.5
C=CCC(C(=O)NCC(C)CC)C(O)C(CC1CCCCC1)NC(=O)C(CSC)NC(=O)C(Cc1ccccc1)NC(=O)OC(C)(C)C (stereo not drawn) [Example 50, Boc-Phe-S-methylcysteinyl-4-amino-2-allyl-3-hydroxy-5-cyclohexylpentanoic acid amide of 2-methylbutylamine] | 1
CCC(C)CNC(=O)CC(O)C(CC1SCCS1)NC(=O)[C@H](CSC)NC(=O)[C@H](Cc1ccccc1)NC(=O)OC(C)(C)C (stereo partly drawn) [Example 78, Boc-Phe-S-methylcysteinyl-[3-hydroxy-4-amino-5-(1',3'-dithiolan-2'-yl)]-pentanoic acid amide of 2-methylbutylamine] | 1
CCC(C)CNC(=O)CC(O)C(CC1SCCCS1)NC(=O)C(CSC)NC(=O)C(Cc1ccccc1)NC(=O)OC(C)(C)C (stereo not drawn) [Example 79, Boc-Phe-S-methylcysteinyl-[3-hydroxy-4-amino-5-(1',3'-dithian-2'-yl)]-pentanoic acid amide of 2-methylbutylamine] | 6
CCC(C)CNC(=O)CC(O)C(CC1OCCO1)NC(=O)C(CSC)NC(=O)C(Cc1ccccc1)NC(=O)OC(C)(C)C (stereo not drawn) [Example 80, Boc-Phe-S-methylcysteinyl-[3-hydroxy-4-amino-5-(1',3'-dioxolan-2'-yl)]-pentanoic acid amide of 2-methylbutylamine] | 600
CCC(C)CNC(=O)CC(O)C(CC1OCCCO1)NC(=O)[C@H](CSC)NC(=O)[C@H](Cc1ccccc1)NC(=O)OC(C)(C)C (stereo partly drawn) [Example 81, Boc-Phe-S-methylcysteinyl-[3-hydroxy-4-amino-5-(1',3'-dioxan-2'-yl)]-pentanoic acid amide of 2-methylbuylamine] | 700
CCOC(=O)N[C@@H](Cc1ccccc1)C(=O)N[C@@H](CC(C)C)C(=O)NC(CC1OCCCO1)C(O)CC(=O)NCC(C)CC (stereo partly drawn) [Example 82, Ethoxycarbonyl-Phe-Leu-[3-hydroxy-4-amino-5-(1',3'-dioxan-2'-yl)]-pentanoicacid amide of 2-methylbutylamine] | 7500
CCC(C)CNC(=O)CC(O)C(CC1SCCS1)NC(=O)C(Cc1cnc[nH]1)NC(=O)C(Cc1ccccc1)NC(=O)OC(C)(C)C (stereo not drawn) [Example 83, Boc-Phe-His-[3-hydroxy-4-amino-5-(1',3'-dithiolan-2'-yl)]-pentanoic acid amide of 2-methylbutylamine] | 1.5
CCC(C)CNC(=O)CC(O)C(CC1CCCCC1)NC(=O)C(CSC)NC(=O)C(Cc1ccccc1)NC(=O)N1C[C@@H](O)[C@@H](O)C1 (stereo partly drawn) [Example 95, (3,4-cis-dihydroxypyrrolidinylcarbonyl)-Phe-S-methyl-cys-ACHPA-amide of 2-Methylbutylamine] | 0.56
(3,4-cis-dihydroxypyrrolidinylcarbonyl)-O-methyl-Tyr-O-methyl-Ser-ACHPA Amide of 2-Methylbutylamine [Example 97] | 16
Boc-(α-Naphthyl)-Ala-Ala-Sta amide of benzylamine [Example 11] | 400

Source: patent publication US4826958A, “Renin inhibiting compounds” (Abbott Laboratories, priority 1988, dated 1989)
